Test [1] deals with T1, mitochondrial uniporter calcium excipient (Homo sapiens, UniProt Q8NE86).
T1 construct: This experiment is also carried out with isolated mitochondria (0.5 mg/ml); from tissue
T1 sequence (Q8NE86 51-351): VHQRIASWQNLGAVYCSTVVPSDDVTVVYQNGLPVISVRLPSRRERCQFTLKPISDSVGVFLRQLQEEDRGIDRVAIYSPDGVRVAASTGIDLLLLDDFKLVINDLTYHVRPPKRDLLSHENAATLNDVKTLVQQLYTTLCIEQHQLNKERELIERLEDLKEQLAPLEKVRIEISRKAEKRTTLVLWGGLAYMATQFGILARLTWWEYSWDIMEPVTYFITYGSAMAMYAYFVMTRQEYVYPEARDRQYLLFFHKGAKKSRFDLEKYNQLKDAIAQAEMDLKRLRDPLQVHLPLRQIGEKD
T1 sequence (Q9H4I9 48-107 partner limits assumed): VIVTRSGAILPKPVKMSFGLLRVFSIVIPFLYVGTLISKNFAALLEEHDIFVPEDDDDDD
In words: Mitochondrial calcium capture in isolated mitochondria (Calcium Green 5N). The format is biochemical.
Protocol: This experiment is also carried out with isolated mitochondria (0.5 mg/ml) energized with succinate 5 mM+rotenone 2.5 μM and the presence of Calcium Green 5N fluorescent marker which increases fluorescence in the presence of calcium. […] The excitation/emission wave lengths used for Calcium Green 5N are 506/531 nm, respectively.

Test [2] has as its target T2, mitochondrial FOF1 ATPase (complex V) (Rattus norvegicus, UniProt P10719+P15999).
T2 construct: These particles are obtained from isolated mitochondria from Wistar rats' liver; from tissue; host or cells: submitochondrial particles from Wistar rat liver mitochondria (sonicated)
Briefly: ATP hydrolysis by FOF1 ATPase in submitochondrial particles. The format is biochemical, Wistar rats.
Description: These particles are obtained from isolated mitochondria from Wistar rats' liver, submitted to an ultrasound process to break their membranes. Thus, so-called mitoplasts or submitchondrial particles are formed with inverted portions of the inner membrane that preserve the ATP hydrolytic activity of the FOF1 ATPase in the presence of external ATP.

The test system of test [3] is mitochondrial permeability transition (MPT). In words: Mitochondrial permeability transition in isolated mitochondria (absorbance decrease at 540 nm). The format is biochemical. The note with it: inducers Ca2+ 50 μM and phosphate (Pi).
Description: Mitochondrial permeability transition can be estimated by absorbance decrease of a mitochondrial suspension at 540 nm.
In test [4] the test system is cerebellar granules damaged with glutamate. In words: Cytoprotective effect in cerebellar granules exposed to glutamate. The format is cell-based.
Description: For neuro-protective in vitro evaluation, we used PC12 cell cultures exposed to damage from glutamate and hydrogen peroxide, as well as cerebellar granules damaged with glutamate.
Diazepam (DZP), derivative of commercial 1,4-benzodiazepine.
In test [5] the test system is mitochondrial membrane potential. Briefly: Dissipation of mitochondrial membrane potential (safranine O fluorescence). The format is biochemical. The note with it: Ca2+ 50 μM and phosphate (Pi) 2 mM. Here is the method:
This membrane potential can be fluorimetrically estimated by using safranine O. This marker is captured in the suspension by energized mitochondria (in the presence of substrates of the electronic transportation chain, such as succinate) provoking a fluorescence decrease. When the MPT process takes place, safranine is again released to the environment, thus increasing, fluorescence. […] In a dosage dependent manner, JM-20 inhibits potential loss, being the maximum inhibitory level at 15 μM (orange line).
Safranine (10 μM) is captured by energized mitochondria (succinate 5 mM rotenone 2.5 μM). In the presence of MPT inducers such as Ca^2+ and Pi, an immediate loss of mitochondrial membrane potential takes place (black line) that is prevented by the classic MPT inhibitor, CsA (red line) and by JM-20 (green, blue and orange lines) in a dosage dependent manner. The excitation/emission wave length used for safranine are 495/586 nm, respectively. A mitoprotective behavior similar to the one reported in the previous Table was found in the other molecules evaluated.

For the compound `N.N.N.N.N.N.N.N.N.N.N.N.N.N.[Cl-].[Cl-].[Cl-].[Cl-].[Cl-].[Cl-].[O-2].[O-2].[Ru+3].[Ru+3].[Ru+4]` [Ruthenium-red, reference compound], the “inhibition of calcium captation by the organelle” value in test [1] (1 μM, isolated mitochondria 0.5 mg/ml, 20 μM Ca2+) was “calcium captation does not occur”.

In the case of “4-(2′-Nitrophenyl)-3-Carbonylalcohoxi-2-Methyl-1, 4-Dihydropyrido (2,3-b-5,6-e)-1,4-Benzodiazepine [JM-20]”, the IC50 in test [2] (submitochondrial particles from Wistar rats' liver mitochondria, read-out: mean inhibitory concentration (IC50) of ATP hydrolysis) worked out at 10.2 µM. Moreover, in test [1] (10 μM, isolated mitochondria 0.5 mg/ml, 20 μM Ca2+), the “inhibition of calcium mitochondrial uptake” value was “significantly inhibits”. The “inhibition of the mitochondrial calcium transmitter compared with Nifedipine” value in test [1] (FIG. 25) is “more powerful in inhibiting the transmitter than other dihydropyridines (Nif)”. In addition, the “MIC: concentration at which total inhibition of mitochondrial permeability transition took place” value in test [3] was found to be 15 µM. Besides, the “cytoprotective effect at concentrations lower than that of Nifedipine and Diazepam independently” value in test [4] was 100 times. Besides, the “maximum inhibitory level for loss of mitochondrial membrane potential” value in test [5] worked out at 15 µM.

On to `CN1C(=O)CN=C(c2ccccc2)c2cc(Cl)ccc21` [Diazepam, reference compound], for which the “inhibition of the hydrolytic activity of the mitochondrial enzyme (in words)” value in test [2] is “Neither Nifedipine: nor Diazepam inhibited”. The “inhibition of calcium captation by the organelle” value in test [1] (20 μM, isolated mitochondria 0.5 mg/ml, 20 μM Ca2+) is “neither nifedipine (Nif 20 μM_light blue line) nor diazepam (DZP 20 μM), or the combination of both (Nif+DZP 1.0 μM—pink line) succeeded in inhibiting”.

Values taken from patent publication US20190092769A1, “[…] AND T[…] ACTING UPON THE […] AND CENTRAL NERVOUS SYSTEMS” (CENTRO DE INVESTIGACION Y […] LOS MEDICAMENTOS (CIDEM), priority 2009, published 2019).
